The source made the active and inactive calls. No cut-off for these calls is given here.
Columns and labels:
[1] = system: HCT-116; assay: Induction of apoptosis in human HCT-116 cells assessed as viable cells at IC50 incubated for 72 hrs by Annexin V-FITC/PI staining based flow cytometric analysis (reference value: 90.5 %); format: functional
[2] = system: K562; assay: Antiproliferative activity against human K562 cells assessed as reduction in cell viability at IC50 measured after 72 hrs by trypan blue dye based assay relative to control; format: functional
[3] = Selectivity index, ratio of IC50 for cytotoxicity against human HMEC-1 cells to IC50 for cytotoxicity against human A549 cells; format: toxicity, cell-based; conditions: HMEC-1 cells and A549 cells, read-out: Ratio IC50
[4] = system: MDA-MB-231; assay: Cytotoxicity against human MDA-MB-231 cells assessed as cell growth inhibition measured after 72 hrs by MTT assay; format: functional, cell-based; conditions: MDA-MB-231, 72 h
[5] = Selectivity index, ratio of IC50 for cytotoxicity against human HMEC-1 cells to IC50 for cytotoxicity against human SW620 cells
[6] = system: A549; assay: Cytotoxicity against human A549 cells assessed as cell growth inhibition measured after 72 hrs by MTT assay; format: functional, cell-based; conditions: A549, 72 h
[7] = system: K562; assay: Induction of apoptosis in human K562 cells assessed as viable cells at IC50 incubated for 72 hrs by Annexin V-FITC/PI staining based flow cytometric analysis (reference value: 89 %); format: functional
[8] = system: HMEC-1; assay: Induction of apoptosis in human HMEC-1 cells assessed as early apoptotic cells at IC50 incubated for 72 hrs by Annexin V-FITC/PI staining based flow cytometric analysis (reference value: 2.4 %); format: functional
[9] = Selectivity index, ratio of IC50 for cytotoxicity against human HMEC-1 cells to IC50 for cytotoxicity against human SW480 cells
[10] = target: T1, 5-hydroxytryptamine receptor 1A (Rattus norvegicus, UniProt P19327); assay: Agonist activity at Sprague-Dawley rat hippocampal membrane 5-HT1A receptor assessed as stimulation of [35S]GTPgammaS binding measured after 90 mins by scintillation counter analysis; format: functional, cell membranes, Hippocampus
T1 sequence (P19327 whole entry): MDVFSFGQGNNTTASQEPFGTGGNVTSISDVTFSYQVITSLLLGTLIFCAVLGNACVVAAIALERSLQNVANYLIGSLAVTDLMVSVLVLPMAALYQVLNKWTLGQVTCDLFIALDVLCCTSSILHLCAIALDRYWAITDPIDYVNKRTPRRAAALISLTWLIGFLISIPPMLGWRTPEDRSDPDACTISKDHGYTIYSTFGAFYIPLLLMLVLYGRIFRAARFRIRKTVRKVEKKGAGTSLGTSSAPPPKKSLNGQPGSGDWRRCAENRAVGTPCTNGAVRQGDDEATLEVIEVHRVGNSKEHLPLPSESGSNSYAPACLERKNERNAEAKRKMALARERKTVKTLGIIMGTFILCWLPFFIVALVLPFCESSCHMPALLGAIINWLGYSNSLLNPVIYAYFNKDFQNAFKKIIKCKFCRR

[11] = Selectivity index, ratio of IC50 for cytotoxicity against human HMEC-1 cells to IC50 for cytotoxicity against human MDA-MB-231 cells; format: toxicity, cell-based; conditions: HMEC-1 cells and MDA-MB-231 cells, read-out: Ratio IC50
[12] = target: Histamine H1 receptor (Rattus norvegicus, UniProt P31390); assay: Displacement of [3H]pyrilamine from Sprague-Dawley rat H1 receptor assessed as inhibition constant measured after 30 mins by competitive binding assay
[13] = system: K562; assay: Induction of apoptosis in human K562 cells assessed as necrotic cells at IC50 incubated for 72 hrs by Annexin V-FITC/PI staining based flow cytometric analysis (reference value: 7.1 %); format: functional
[14] = system: HMEC-1; assay: Induction of apoptosis in human HMEC-1 cells assessed as viable cells at IC50 incubated for 72 hrs by Annexin V-FITC/PI staining based flow cytometric analysis (reference value: 90.6 %); format: functional
[15] = target: T2, 5-hydroxytryptamine receptor 1A (Rattus norvegicus) (UniProt P19327); assay: Agonist activity at Sprague-Dawley rat hippocampal membrane 5-HT1A receptor assessed as stimulation of [35S]GTPgammaS binding by measuring maximal efficacy measured after 90 mins by scintillation counter analysis relative to control; format: functional, cell membranes; conditions: Hippocampus, filed as agonist
T2 sequence (whole entry): T1 sequence (P19327 whole entry)

[16] = system: HCT-116; assay: Induction of apoptosis in human HCT-116 cells assessed as early apoptotic cells at IC50 incubated for 72 hrs by Annexin V-FITC/PI staining based flow cytometric analysis (reference value: 7.8 %); format: functional
[17] = system: HMEC-1; assay: Induction of apoptosis in human HMEC-1 cells assessed as necrotic cells at IC50 incubated for 72 hrs by Annexin V-FITC/PI staining based flow cytometric analysis (reference value: 2.4 %); format: functional
[18] = system: HMEC-1; assay: Induction of apoptosis in human HMEC-1 cells assessed as late apoptotic cells at IC50 incubated for 72 hrs by Annexin V-FITC/PI staining based flow cytometric analysis (reference value: 4.7 %); format: functional
[19] = system: K562; assay: Induction of apoptosis in human K562 cells assessed as increase in caspase-3/7 activity at IC50 incubated for 24 hrs by Glo assay relative to control; format: functional
[20] = system: HCT-116; assay: Induction of apoptosis in human HCT-116 cells assessed as late apoptotic cells at IC50 incubated for 72 hrs by Annexin V-FITC/PI staining based flow cytometric analysis (reference value: 1.6 %); format: functional
[21] = system: K562; assay: Cytotoxicity against human K562 cells assessed as cell growth inhibition measured after 72 hrs by MTT assay; format: functional, cell-based; conditions: K562, 72 h
[22] = Selectivity index, ratio of IC50 for cytotoxicity against human HMEC-1 cells to IC50 for cytotoxicity against human HCT-116 cells; format: toxicity, cell-based; conditions: HMEC-1 cells and HCT-116 cells, read-out: Ratio IC50
[23] = system: HCT-116; assay: Induction of apoptosis in human HCT-116 cells assessed as necrotic cells at IC50 incubated for 72 hrs by Annexin V-FITC/PI staining based flow cytometric analysis (reference value: 0.1 %); format: functional
[24] = system: PC-3; assay: Cytotoxicity against human PC-3 cells assessed as cell growth inhibition measured after 72 hrs by MTT assay; format: functional, cell-based; conditions: PC-3, 72 h
[25] = Cytotoxicity against human HMEC-1 cells assessed as cell growth inhibition measured after 72 hrs by MTT assay; format: toxicity, cell-based
[26] = Selectivity index, ratio of IC50 for cytotoxicity against human HMEC-1 cells to IC50 for cytotoxicity against human HepG2 cells; format: toxicity, cell-based; conditions: HMEC-1 cells and HepG2 cells, read-out: Ratio IC50
[27] = system: HCT-116; assay: Cytotoxicity against human HCT-116 cells assessed as cell growth inhibition measured after 72 hrs by MTT assay; format: functional, cell-based; conditions: HCT-116, 72 h
[28] = system: SW-620; assay: Cytotoxicity against human SW620 cells assessed as cell growth inhibition measured after 72 hrs by MTT assay; format: functional, cell-based; conditions: SW-620, 72 h
[29] = species: Rattus norvegicus; assay: Displacement of [3H]-QNB from Sprague-Dawley rat Muscarinic acetylcholine receptor assessed as inhibition constant measured after 45 mins by competitive binding assay
[30] = target: D(2) dopamine receptor (Rattus norvegicus, UniProt P61169); assay: Antagonist activity at Sprague-Dawley rat striatum membrane D2 receptor assessed as inhibition of dopamine stimulated [35S]GTPgammaS binding measured after 90 mins by scintillation counter analysis; format: functional, cell membranes
[31] = system: SW480; assay: Cytotoxicity against human SW480 cells assessed as cell growth inhibition measured after 72 hrs by MTT assay; format: functional, cell-based; conditions: SW480, 72 h

Histamine H1 receptor, sequence (P31390 whole entry): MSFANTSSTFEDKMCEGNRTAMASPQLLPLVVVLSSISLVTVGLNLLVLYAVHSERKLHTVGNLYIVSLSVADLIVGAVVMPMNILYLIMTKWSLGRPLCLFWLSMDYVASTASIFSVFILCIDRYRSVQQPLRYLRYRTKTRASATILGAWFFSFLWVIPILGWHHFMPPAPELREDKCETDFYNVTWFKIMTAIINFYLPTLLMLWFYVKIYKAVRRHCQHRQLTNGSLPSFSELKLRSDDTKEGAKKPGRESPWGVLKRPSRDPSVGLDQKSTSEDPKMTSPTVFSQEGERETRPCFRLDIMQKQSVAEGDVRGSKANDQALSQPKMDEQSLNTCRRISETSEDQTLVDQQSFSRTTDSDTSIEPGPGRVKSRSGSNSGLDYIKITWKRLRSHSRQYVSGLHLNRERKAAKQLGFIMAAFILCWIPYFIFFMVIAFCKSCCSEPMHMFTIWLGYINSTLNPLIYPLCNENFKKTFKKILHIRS
D(2) dopamine receptor, sequence (P61169 whole entry): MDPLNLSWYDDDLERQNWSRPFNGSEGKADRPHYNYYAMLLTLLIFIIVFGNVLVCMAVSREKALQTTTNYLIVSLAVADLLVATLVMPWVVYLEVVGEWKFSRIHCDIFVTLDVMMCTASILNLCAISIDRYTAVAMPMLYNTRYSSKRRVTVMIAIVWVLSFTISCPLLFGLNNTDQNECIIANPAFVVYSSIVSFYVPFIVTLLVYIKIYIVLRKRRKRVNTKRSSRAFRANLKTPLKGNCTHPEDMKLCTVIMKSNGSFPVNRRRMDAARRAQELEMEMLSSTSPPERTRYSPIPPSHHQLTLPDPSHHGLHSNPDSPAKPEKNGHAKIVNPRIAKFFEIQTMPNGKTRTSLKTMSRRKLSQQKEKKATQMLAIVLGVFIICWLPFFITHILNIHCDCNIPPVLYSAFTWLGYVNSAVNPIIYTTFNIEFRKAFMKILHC

SMILES | EC50 [10] [µM] | Ki [12] [µM] | Emax [15] [%] | Activity [1] [%] | Activity [2] [%] | selectivity ratio [3] | IC50 [4] [µM] | Ratio IC50 [5] | IC50 [6] [µM] | Activity [7] [%] | Activity [8] [%] | Ratio IC50 [9] | selectivity ratio [11] | Activity [13] [%] | Activity [14] [%] | Activity [16] [%] | Activity [17] [%] | Activity [18] [%] | Activity [19] [%] | Activity [20] [%] | other results
COc1ccccc1N1CCN(CCCCN2C(=O)C3C(C2=O)C2(C)C(=O)C3(C)C(c3ccccc3)=C2c2ccccc2)CC1 (stereo unspecified) | 0.006 | 0.3 | 122 | 79.2 | 44 | 1.86 | 29.3 | 6.3 | 16.2 | 22.4 | 2.2 | 4.08 | 1.03 | 20.4 | 94.3 | 18.4 | 1.7 | 1.8 | 22 | 2.3 | IC50 [21]: 6.76 µM; selectivity ratio [22]: 3.4; Activity [23]: 0.1%; IC50 [24]: 14.6 µM; IC50 at 72 h [25]: 30.2 µM; selectivity ratio [26]: 1.93; IC50 [27]: 8.89 µM; IC50 [28]: 4.8 µM; Activity [29]: inactive; IC50 [30]: 11.6 µM; IC50 [31]: 7.41 µM
CC12C(=O)C(C)(C(c3ccccc3)=C1c1ccccc1)C1C(=O)N(CCCCN3CCN(c4ncccn4)CC3)C(=O)C12 (stereo unspecified) | 1.5 | 0.006 | 134 | 37.4 | 28 | 1.69 | 18.7 | 2.26 | 18.1 | 77.3 | 4.6 | 1.93 | 1.64 | 7 | 91.7 | 58.2 | 1.3 | 2.4 | 22 | 4.1 | IC50 [21]: 8.08 µM; selectivity ratio [22]: 6.6; Activity [23]: 0.3%; IC50 [24]: 20.4 µM; IC50 at 72 h [25]: 30.5 µM; selectivity ratio [26]: 1.83; IC50 [27]: 4.63 µM; IC50 [28]: 13.5 µM; Activity [29]: inactive; IC50 [30]: 22.6 µM; IC50 [31]: 15.8 µM
CC12C(=O)C(C)(C(c3ccccc3)=C1c1ccccc1)C1C(=O)N(CCCCN3CCN(c4ccccn4)CC3)C(=O)C12 (stereo unspecified) | 0.7 | 0.6 | 168 | 85.5 | 37 | 2.28 | 15.2 | 2.29 | 16.1 | 36.1 | 1.4 | 3.02 | 2.41 | 13.7 | 95.5 | 12.1 | 1.6 | 1.4 | 74 | 2.1 | IC50 [21]: 8.86 µM; selectivity ratio [22]: 4.37; Activity [23]: 0.4%; IC50 [24]: 21.2 µM; IC50 at 72 h [25]: 36.6 µM; selectivity ratio [26]: 2.51; IC50 [27]: 8.38 µM; IC50 [28]: 16 µM; Activity [29]: inactive; IC50 [30]: 50.3 µM; IC50 [31]: 12.1 µM
CC12C(=O)C(C)(C(c3ccccc3)=C1c1ccccc1)C1C(=O)N(CCCCN3CCN(c4cccc(Cl)c4)CC3)C(=O)C12 (stereo unspecified) | 0.6 | 0.08 | 162 | 81.5 | 30 | 0.86 | 40.6 | 1.38 | 25.6 | 59.5 | 3.5 | 2.64 | 0.54 | 9.9 | 86.8 | 15.7 | 2 | 7.8 | 74 | 2.5 | IC50 [21]: 4.38 µM; selectivity ratio [22]: 3.54; Activity [23]: 0.3%; IC50 [24]: 8.61 µM; IC50 at 72 h [25]: 21.9 µM; selectivity ratio [26]: 1.55; IC50 [27]: 6.19 µM; IC50 [28]: 15.9 µM; Activity [29]: inactive; IC50 [30]: 24.8 µM; IC50 [31]: 8.3 µM

The next lines start with results.

EC50 [10] [µM] | Ki [12] [µM] | Emax [15] [%] | SMILES | Activity [1] [%] | Activity [2] [%] | selectivity ratio [3] | IC50 [4] [µM] | Ratio IC50 [5] | IC50 [6] [µM] | Activity [7] [%] | Activity [8] [%] | Ratio IC50 [9] | selectivity ratio [11] | Activity [13] [%] | Activity [14] [%] | Activity [16] [%] | Activity [17] [%] | Activity [18] [%] | Activity [19] [%] | Activity [20] [%] | other results
0.1 | 0.03 | 145 | CC12C(=O)C(C)(C(c3ccccc3)=C1c1ccccc1)C1C(=O)N(CCCCN3CCN(c4ccccc4Cl)CC3)C(=O)C12 (stereo unspecified) | 58 | 30 | 0.82 | 24.3 | 3.33 | 25 | 67 | 3.5 | 3.9 | 0.85 | 8.4 | 86.7 | 36.4 | 5.1 | 4.7 | 22 | 5 | IC50 [21]: 4.01 µM; selectivity ratio [22]: 5.77; Activity [23]: 0.6%; IC50 [24]: 7.85 µM; IC50 at 72 h [25]: 20.6 µM; selectivity ratio [26]: 1.6; IC50 [27]: 3.58 µM; IC50 [28]: 6.2 µM; Activity [29]: inactive; IC50 [30]: 8.4 µM; IC50 [31]: 5.29 µM
1.7 | 0.007 | 152 | CC12C(=O)C(C)(C(c3ccccc3)=C1c1ccccc1)C1C(=O)N(CCCCN3CCN(c4ccccc4F)CC3)C(=O)C12 (stereo unspecified) | 74.9 | 30 | 0.58 | 56.5 | 0.79 | 30.7 | 56.9 | 1.9 | 2.28 | 0.31 | 10.6 | 85.8 | 23 | 5 | 7.3 | 74 | 1.9 | IC50 [21]: 5.65 µM; selectivity ratio [22]: 3.95; Activity [23]: 0.2%; IC50 [24]: 9.19 µM; IC50 at 72 h [25]: 17.7 µM; selectivity ratio [26]: 0.66; IC50 [27]: 4.48 µM; IC50 [28]: 22.4 µM; Activity [29]: inactive; IC50 [30]: 18.3 µM; IC50 [31]: 7.75 µM
